Legend:
Assay type in all cases: in vivo, mouse
Balb/C female mice [1] = assay: Hematopoietic recovery after 5-fluorouracil in mice
Method: 5-fluorouracil (5-FU) (150 mg/kg, i.p.) was administered to forty Balb/C female mice weighing approximately 20 grams each. Twenty-four hours later and each day thereafter for a total of 8 days, mice were given a 0.4 ml i.p. injection of either physiological saline (controls) or 5′-O-palmitoylguanosine (2.5 μmoles/mouse/day in 0.2% Tween 80). On days 7 and 14 following 5-FU administration half of the animals from each group were bled and then were sacrificed by cervical dislocation. Spleens were removed and weighed, and complete blood cells counts performed.
5-fluorouracil (5-FU) (150 mg/kg, i.p.) was administered to fifty-four Balb/C female mice weighing approximately 20 grams each. Twenty-four hours later and each day thereafter for a total of 7 days, mice were given a 0.4 ml i.p. injection of either physiological saline (controls) or palmitoylguanosine (2.5 μmoles/mouse/day in 0.2% Tween 80). On days 8, 10 and 12 following administration of 5-FU nine animals from each group were bled and then sacrificed by cervical dislocation. Spleens were removed and weighed, and complete blood cell counts performed.
Twenty-eight female Balb/C mice weighing approximately 20 grams each received a 0.4 ml i.p. injection of either physiological saline (controls), or palmitoyldeoxyguanosine (1 μmole/mouse) daily for three days. On the fourth day 5-fluorouracil (5-FU) (150 mg/kg, i.p.) was administered to all 28 of the animals. On days 5, 8 and 11 following 5-FU administration 4 (day 5) or 5 (days 8 and 11) animals from both groups were bled and then sacrificed by cervical dislocation. Spleens were removed and weighed, and complete blood cell counts performed. […]
Sixty female Balb/C mice weighing approximately 20 grams each were distributed into one of five treatment groups and treated once daily for three days by i.p. injection with 3′,5′-O—N^2-tripalmitoyl-2′-deoxyguanosine at a dose of either 1, 5, 10, 25, or 50 mg/kg/treatment in a Tween-DMSO vehicle (0.2% Tween-80 and 7.5% DMSO in physiological saline). Injection volume was 0.4 ml. An additional twelve animals (controls) received vehicle alone on those three days. On the fourth day all seventy-two animals received a single i.p. injection of 5-fluorouracil (5-FU) at a dose of 150 mg/kg. On days 7 and 10 following 5-FU administration six mice from each group were bled and then sacrificed by cervical dislocation. Six untreated mice were also bled and sacrificed to provide data on normal (basal) values. Spleens were removed and weighed, and complete blood cell counts performed.

IFN-gamma = assay: LPS-induced serum interferon-gamma (ELISA)
Method: Sixty-three female Balb/C mice were randomly assigned to one of three groups. The animals in one group received a single daily dose of N^2,3′,5′-tripalmitoyldeoxyguanosine (PdG) (25 mg/kg, i.p.), while a second group received a single daily dose of the PdG treatment vehicle (control). The third group was left untreated. On the fourth day 100 μg salmonella typhimurium LPS was administered to all three groups. Serum samples were taken just prior to LPS administration (t=0) and at two, four, six, eight, ten, twelve, sixteen, and twenty hours after LPS administration. The samples were then frozen until the time of assay. Serum levels of TNF-alpha, and IFN-gamma were measured by ELISA.
In the tables below, units for cytokine concentrations are picograms per ml. A value of 0 indicates cytokine levels below the detection limit of the assay (50 to 100 pg/ml).

Balb/C female mice [2] = assay: Hematopoietic recovery after cyclophosphamide in mice (spleen weight, blood cell counts)
female Balb/C mice = assay: Survival of mice irradiated with Cobalt 60 gamma radiation; conditions: for number of mice surviving 30 days after irradiation over number irradiated: 50 mg/kg i.p. daily 6 days from 24 h after irradiation
[3] = Table 9: 7 days after 5-FU, 10 mg/kg pretreatment
[4] = Table 9: 7 days after 5-FU, 25 mg/kg pretreatment
[5] = Table 9: 7 days after 5-FU, 50 mg/kg pretreatment
[6] = Table 10: 10 days after 5-FU, 5 mg/kg pretreatment
[7] = Table 10: 10 days after 5-FU, 10 mg/kg pretreatment
[8] = Table 10: 10 days after 5-FU, 25 mg/kg pretreatment
[9] = Table 10: 10 days after 5-FU, 50 mg/kg pretreatment
[10] = Table 5 (Ex 62): 5 days after CP
[11] = Table 6 (Ex 62): 7 days after CP
[12] = Table 7 (Ex 63): 5 days after CP
[13] = Table 8 (Ex 63): 7 days after CP
[14] = Ex 47: day 7 after CP, 2.5 μmoles/mouse/day
[15] = Ex 53: day 5 after CP, palmitoylguanosine 2.0, palmitoyldeoxyguanosine 1.0 μmoles/mouse
[16] = Ex 53: day 7 after CP, palmitoylguanosine 1.0 and 2.0, palmitoyldeoxyguanosine 1.0 μmoles/mouse

SMILES: CCCCCCCCCCCCCCCC(=O)Nc1nc2c(ncn2[C@H]2C[C@H](OC(=O)CCCCCCCCCCCCCCC)[C@@H](COC(=O)CCCCCCCCCCCCCCC)O2)c(=O)[nH]1 [PdG, 3′,5′-O-N^2-tripalmitoyl-2′-deoxyguanosine]
- Platelets (Balb/C female mice [1]; Table 9: 7 days after 5-FU, 5 mg/kg pretreatment): 682 ± 66 K/μl
- Platelets (Balb/C female mice [1]; [3]): 571 ± 41 K/μl
- Spleen (Balb/C female mice [1]; [3]): 83 ± 6 mg
- Platelets (Balb/C female mice [1]; [4]): 587 ± 19 K/μl
- Spleen (Balb/C female mice [1]; [4]): 93 ± 5 mg
- Platelets (Balb/C female mice [1]; [5]): 596 ± 43 K/μl
- Spleen (Balb/C female mice [1]; [5]): 102 ± 4 mg
- Neutrophils (Balb/C female mice [1]; Table 10: 10 days after 5-FU, 1 mg/kg pretreatment): 0.4 ± .2 K/μl
- Neutrophils (Balb/C female mice [1]; [6]): 1.6 ± .4 K/μl
- Spleen (Balb/C female mice [1]; [6]): 157 ± 13 mg
- Neutrophils (Balb/C female mice [1]; [7]): 1.8 ± .4 K/μl
- Spleen (Balb/C female mice [1]; [7]): 169 ± 24 mg
- Lymphocytes (Balb/C female mice [1]; [8]): 8.3 ± .4 K/μl
- Neutrophils (Balb/C female mice [1]; [8]): 2.9 ± .4 K/μl
- Spleen (Balb/C female mice [1]; [8]): 293 ± 17 mg
- WBC (Balb/C female mice [1]; [8]): 11.4 ± .6 K/μl
- Lymphocytes (Balb/C female mice [1]; [9]): 8.3 ± 1.0 K/μl
- Neutrophils (Balb/C female mice [1]; [9]): 2.2 ± .5 K/μl
- Spleen (Balb/C female mice [1]; [9]): 320 ± 39 mg
- WBC (Balb/C female mice [1]; [9]): 10.8 ± 1.6 K/μl
- serum interferon-gamma (IFN-gamma; 0 hr after LPS 100 μg, PdG 25 mg/kg i.p. daily before, 0 = below detection limit): 0 picograms per ml
- serum interferon-gamma (IFN-gamma; 2 hr after LPS, 0 = below detection limit): 0 picograms per ml
- serum interferon-gamma (IFN-gamma; 4 hr after LPS): 825 ± 248 picograms per ml
- serum interferon-gamma (IFN-gamma; 8 hr after LPS): 2129 ± 454 picograms per ml
- serum interferon-gamma (IFN-gamma; 10 hr after LPS): 911 ± 279 picograms per ml
- serum interferon-gamma (IFN-gamma; 12 hr after LPS, 0 = below detection limit): 0 picograms per ml
- serum interferon-gamma (IFN-gamma; 16 hr after LPS, 0 = below detection limit): 0 picograms per ml
- serum interferon-gamma (IFN-gamma; 20 hr after LPS, 0 = below detection limit): 0 picograms per ml
- area under the curve (AUC) over the entire time course (IFN-gamma; PdG 25 mg/kg i.p.): significantly lower
- peak IFN-gamma levels vs control values (IFN-gamma; PdG 25 mg/kg i.p.): five- to seven-fold lower
- Neutrophils (Balb/C female mice [2]; [10]): 2.5 ± .3 K/μl
- WBC (Balb/C female mice [2]; [10]): 4.1 ± .4 K/μl
- Spleen (Balb/C female mice [2]; Table 5 (Ex 62): 5 days after CP 250 mg/kg, triPdG 25 mg/kg/treatment, diPdG molar equivalent, i.p. daily): 77 ± 7 mg
- Neutrophils (Balb/C female mice [2]; [11]): 9.9 ± .9 K/μl
- Platelets (Balb/C female mice [2]; [11]): 549 ± 25 K/μl
- WBC (Balb/C female mice [2]; [11]): 13.4 ± .4 K/μl
- Spleen (Balb/C female mice [2]; Table 6 (Ex 62): 7 days after CP, triPdG 25 mg/kg, diPdG molar equivalent, daily 5 days): 156 ± 12 mg
- Neutrophils (Balb/C female mice [2]; [12]): 0.6 ± .1 K/μl
- WBC (Balb/C female mice [2]; [12]): 3.6 ± .4 K/μl
- Spleen (Balb/C female mice [2]; Table 7 (Ex 63): 5 days after CP 250 mg/kg, TriPdG 25 mg/kg/treatment, others molar equivalent, i.p. daily): 73 ± 3 mg
- Neutrophils (Balb/C female mice [2]; [13]): 7.3 ± .3 K/μl
- Platelets (Balb/C female mice [2]; [13]): 674 ± 37 K/μl
- WBC (Balb/C female mice [2]; [13]): 3.6 ± .4 K/μl
- Spleen (Balb/C female mice [2]; Table 8 (Ex 63): 7 days after CP, TriPdG 25 mg/kg, others molar equivalent, daily 5 days): 198 ± 23 mg

SMILES: CCCCCCCCCCCCCCCC(=O)OC[C@H]1O[C@@H](n2cnc3c(=O)[nH]c(N)nc32)[C@H](O)[C@@H]1O
- number of mice surviving 30 days after irradiation over number irradiated (female Balb/C mice; 725 R): 5/5
- number of mice surviving 30 days after irradiation over number irradiated (female Balb/C mice; 750 R): 5/5
- survival (female Balb/C mice; pretreatment prior to irradiation): improved survival
- spleen weight (Balb/C female mice [1]; Ex 42: day 7 after 5-FU 150 mg/kg, 2.5 μmoles/mouse/day in 0.2% Tween 80 i.p. 8 days): slight, but statistically significant, increase
- Lymphocytes (Balb/C female mice [1]; Ex 42: day 14 after 5-FU): significantly higher
- Neutrophils (Balb/C female mice [1]; Ex 42: day 14 after 5-FU): significantly higher
- Platelets (Balb/C female mice [1]; Ex 42: day 14 after 5-FU): significantly higher
- spleen weight (Balb/C female mice [1]; Ex 42: day 14 after 5-FU): significantly heavier
- total leukocytes (Balb/C female mice [1]; Ex 42: day 14 after 5-FU): significantly higher
- number of platelets (Balb/C female mice [1]; Ex 43: day 8 after 5-FU, 2.5 μmoles/mouse/day in 0.2% Tween 80 i.p. 7 days): significantly greater
- number of platelets (Balb/C female mice [1]; Ex 43: day 10 after 5-FU): greater numbers
- spleen size (Balb/C female mice [1]; Ex 43: day 10 after 5-FU): significantly larger
- number of neutrophils vs control (Balb/C female mice [1]; Ex 43: day 12 after 5-FU): 3 fold
- spleen weight vs control mice (Balb/C female mice [1]; Ex 43: day 12 after 5-FU): more than double
- white blood cell (WBC) counts (Balb/C female mice [2]; Ex 38: day 7 after CP, guanosine 5, acyl derivatives 2.5 μmoles/mouse/day in 0.2% Tween 80): greatest effect
- spleen weight (Balb/C female mice [2]; Ex 41: day 7 after CP, 5 μmoles/mouse/day in 0.2% Tween 80 on days 1-2, 1-4, 3-5, 4-6 or 1-6, vs saline): significantly greater
- Total white blood cell (WBC) counts (Balb/C female mice [2]; Ex 41: day 7 after CP, 5 μmoles/mouse/day, each timing group, vs saline): significantly greater
- lymphocyte counts (Balb/C female mice [2]; Ex 41: day 7 after CP, treatment on days 1-2 or 1-6): elevated
- total neutrophil counts (Balb/C female mice [2]; Ex 41: day 7 after CP, treatment on days 1-6): greatest increase
- Neutrophils (Balb/C female mice [2]; [14]): significantly elevated
- spleen weight (Balb/C female mice [2]; [14]): significantly elevated
- total white blood cells (Balb/C female mice [2]; Ex 47: day 7 after CP, 2.5 μmoles/mouse/day in 0.2% Tween 80 i.p. 6 days): significantly elevated
- spleen weight (Balb/C female mice [2]; Ex 50: day 5 after CP, 2 μmoles/mouse): significantly elevated
- total neutrophil counts (Balb/C female mice [2]; Ex 53: day 5 after CP, 1.0 μmoles/mouse): significantly increased
- spleen weight (Balb/C female mice [2]; [15]): significantly elevated
- total neutrophil counts (Balb/C female mice [2]; [15]): significantly elevated
- white blood cell counts (Balb/C female mice [2]; [15]): significantly elevated
- spleen weight (Balb/C female mice [2]; [16]): significantly elevated
- total neutrophil counts (Balb/C female mice [2]; [16]): significantly elevated
- white blood cell counts (Balb/C female mice [2]; [16]): significantly elevated

From patent publication US7307166B1, “Oxpurine nucleosides and their congeners, and acyl, derivatives thereof, for improvement of hematopoiesis” (Wellstat Therapeutics Corporation, priority 1987, dated 2007)
